Measured values: ChEMBL document CHEMBL1147463, “Synthesis and anticancer activity of side chain analogs of the crambescidin alkaloids” (2004)

Key:
Type in all cases: functional
[1] = Human tumor selectivity was measured as zone unit differential between (H125) lung small cell carcinoma and (CEM) lymphocytic leukemia in disk diffusion soft agar colony formation assay at a concentration of 75 ug/disk
[2] = Murine tumor cell selectivity was measured as zone unit differential between (C38) colon adenocarcinoma and (CFU) normal bone marrow in disk diffusion soft agar colony formation assay at a concentration of 75 ug/disk
[3] = Murine tumor cell selectivity as zone unit differential between ([…]) murine cell line and (CFU) normal bone marrow in disk diffusion soft agar colony formation assay at 75 ug/disk.
[4] = Murine tumor cell selectivity as zone unit differential between (C38) colon adenocarcinoma and ([…]) murine cell line in disk diffusion soft agar colony formation assay at 75 ug/disk.
[5] = Murine tumor cell selectivity was measured as zone unit differential between (C38) colon adenocarcinoma and (CFU) normal bone marrow in disk diffusion soft agar colony formation assay at a concentration of 5 ug/disk
[6] = Human tumor selectivity was measured as zone unit differential between (H116) colon tumor and (CEM) lymphocytic leukemia in disk diffusion soft agar colony formation assay at a concentration of 5 ug/disk
[7] = Human tumor selectivity was measured as zone unit differential between (H125) lung small cell carcinoma and (CEM) lymphocytic leukemia in disk diffusion soft agar colony formation assay at a concentration of 5 ug/disk
[8] = Murine tumor cell selectivity was measured as zone unit differential between ([…]) murine cell line and (CFU) normal bone marrow in disk diffusion soft agar colony formation assay at a concentration of 5 ug/disk
[9] = Murine tumor cell selectivity was measured as zone unit differential between (C38) colon adenocarcinoma and ([…]) murine cell line in disk diffusion soft agar colony formation assay at a concentration of 5 ug/disk
[10] = Human tumor selectivity was measured as zone unit differential between (H116) colon tumor and (CEM) lymphocytic leukemia in disk diffusion soft agar colony formation assay at a concentration of 19 ug/disk
[11] = Murine tumor cell selectivity was measured as zone unit differential between (C38) colon adenocarcinoma and (CFU) normal bone marrow in disk diffusion soft agar colony formation assay at a concentration of 19 ug/disk
[12] = Murine tumor cell selectivity was measured as zone unit differential between ([…]) murine cell line and (CFU) normal bone marrow in disk diffusion soft agar colony formation assay at a concentration of 19 ug/disk
[13] = Human tumor selectivity was measured as zone unit differential between (H125) lung small cell carcinoma and (CEM) lymphocytic leukemia in disk diffusion soft agar colony formation assay at a concentration of 19 ug/disk
[14] = Murine tumor cell selectivity was measured as zone unit differential between (C38) colon adenocarcinoma and ([…]) murine cell line in disk diffusion soft agar colony formation assay at a concentration of 19 ug/disk

Structure (SMILES) | Selectivity [1] | Selectivity [2] | Selectivity [3] | Selectivity [4] | further results
CC[C@H]1C=CCC[C@@]2(C[C@@H]3CC[C@@H]4[C@H](C(=O)OCCCCCCCCCC(=O)N(CCCN)C[C@@H](O)CCN)[C@]5(CCC[C@@H](C)O5)NC(=[N+]34)N2)O1.Cl.Cl.[Cl-] | -50 | 100 | 300 | 0 | 
CC[C@H]1C=CCC[C@@]2(C[C@@H]3CC[C@@H]4[C@H](C(=O)OCCCCCCCCCCCCCCCC(=O)N(CCCN)C[C@@H](O)CCN)[C@]5(CCC[C@@H](C)O5)NC(=N2)N34)O1.Cl.Cl.Cl [CRAMBESCIDIN 800 TRIHYDROCHLORIDE] | 50 | -50 | 150 | -200 | 
CC[C@H]1C=CCC[C@@]2(C[C@@H]3CC[C@@H]4[C@H](C(=O)OCCCCCCCCCCCCCCCCCC(=O)N(CCCN)C[C@@H](O)CCN)[C@]5(CCC[C@@H](C)O5)NC(=[N+]34)N2)O1.Cl.Cl.[Cl-] | 150 | 150 | 100 | 50 | 
CCOC(=O)[C@H]1[C@H]2CC[C@H]3C[C@@]4(CCC=C[C@H](CC)O4)NC(=[N+]32)N[C@@]12CCC[C@@H](C)O2.[Cl-] |  |  |  |  | Selectivity [5]: 150; Selectivity [6]: 0; Selectivity [7]: 100; Selectivity [8]: 200; Selectivity [9]: -50
CC[C@H]1C=CCC[C@@]2(C[C@@H]3CC[C@@H]4[C@H](C(=O)OCCCCCCCC(=O)N(CCCN)C[C@@H](O)CCN)[C@]5(CCC[C@@H](C)O5)NC(=[N+]34)N2)O1.Cl.Cl.[Cl-] | -50 | 100 | 300 | -200 | 
CC[C@H]1C=CCC[C@@]2(C[C@@H]3CC[C@H]4[C@H](C(=O)OCCCCCCCCCCCCCCCC(=O)N(CCCN)C[C@@H](O)CCN)[C@@]5(CCC[C@@H](C)O5)NC(=[N+]34)N2)O1.Cl.Cl.[Cl-] | 50 | 50 | 50 | 0 | 
CC[C@H]1C=CCC[C@@]2(C[C@@H]3CC[C@@H]4[C@H](C(=O)OC/C=C/c5ccccc5)[C@]5(CCC[C@@H](C)O5)NC(=[N+]34)N2)O1.[Cl-] |  |  |  |  | Selectivity [10]: 200; Selectivity [11]: 100; Selectivity [12]: -50; Selectivity [13]: 200; Selectivity [14]: 150
CC[C@H]1C=CCC[C@@]2(C[C@@H]3CC[C@@H]4[C@@H](C(=O)OC/C=C/c5ccccc5)[C@]5(CCC[C@@H](C)O5)NC(=[N+]34)N2)O1.[Cl-] |  |  |  |  | Selectivity [5]: 100; Selectivity [6]: 100; Selectivity [7]: 200; Selectivity [8]: 50; Selectivity [9]: 50
CC[C@H]1C=CCC[C@@]2(C[C@@H]3CC[C@@H]4[C@H](C(=O)OCCCCCCCC(=O)O)[C@]5(CCC[C@@H](C)O5)NC(=[N+]34)N2)O1.[Cl-] [GUANIDINO ACID] | -50 | 200 | 100 | 100 | 
CC[C@H]1C=CCC[C@@]2(C[C@@H]3CC[C@@H]4[C@H](C(=O)OCCC(C)C)[C@]5(CCC[C@@H](C)O5)NC(=[N+]34)N2)O1.[Cl-] |  |  |  |  | Selectivity [5]: 0; Selectivity [6]: 50; Selectivity [7]: 150; Selectivity [8]: -50; Selectivity [9]: 50
CC[C@H]1C=CCC[C@@]2(C[C@@H]3CC[C@@H]4[C@H](C(=O)O)[C@]5(CCC[C@@H](C)O5)NC(=[N+]34)N2)O1.[Cl-] |  |  |  |  | Selectivity [10]: 50; Selectivity [11]: -50; Selectivity [12]: 200; Selectivity [13]: 100; Selectivity [14]: -250
CC[C@H]1C=CCC[C@@]2(C[C@@H]3CC[C@@H]4[C@H](C(=O)OCCCCCCCCCCCC(=O)N(CCCN)C[C@@H](O)CCN)[C@]5(CCC[C@@H](C)O5)NC(=[N+]34)N2)O1.Cl.Cl.[Cl-] | 100 | 100 | 50 | 50 | 
CC[C@H]1C=CCC[C@@]2(C[C@@H]3CC[C@@H]4[C@H](C(=O)OCCCCCCCCCC(=O)O)[C@]5(CCC[C@@H](C)O5)NC(=[N+]34)N2)O1.[Cl-] [GUANIDINO ACID] | 50 | 100 | -200 | 300 | 
CC[C@H]1C=CCC[C@@]2(C[C@@H]3CC[C@@H]4[C@H](C(=O)OCCCCCC(=O)N(CCCN)C[C@@H](O)CCN)[C@]5(CCC[C@@H](C)O5)NC(=[N+]34)N2)O1.Cl.Cl.[Cl-] | -50 | 0 | 300 | -300 | 
CC[C@H]1C=CCC[C@@]2(C[C@@H]3CC[C@H]4[C@@H](C(=O)OCCCCCCCCCCCCCCCC(=O)N(CCCN)C[C@@H](O)CCN)[C@@]5(CCC[C@@H](C)O5)NC(=[N+]34)N2)O1.Cl.Cl.[Cl-] | 100 | 0 | 50 | -50 | 
CC[C@H]1C=CCC[C@@]2(C[C@@H]3CC[C@@H]4[C@H](C(=O)OCC5CC5)[C@]5(CCC[C@@H](C)O5)NC(=[N+]34)N2)O1.[Cl-] |  |  |  |  | Selectivity [5]: 300; Selectivity [6]: 100; Selectivity [7]: 150; Selectivity [8]: 100; Selectivity [9]: 200
CC[C@H]1C=CCC[C@@]2(C[C@@H]3CC[C@@H]4[C@H](C(=O)OCCCCCC(=O)[O-])[C@]5(CCC[C@@H](C)O5)NC(=[N+]34)N2)O1.Cl [GUANIDINO ACID] | 150 | 0 | 200 | -200 | 
CC[C@H]1C=CCC[C@@]2(C[C@@H]3CC[C@@H]4[C@@H](C(=O)[O-])[C@]5(CCC[C@@H](C)O5)NC(=[N+]34)N2)O1.Cl | 50 | 200 | 300 | -100 | 
CC[C@H]1C=CCC[C@@]2(C[C@@H]3CC[C@@H]4[C@H](C(=O)OCCCCCCCCCCCCCCCCCC(=O)O)[C@]5(CCC[C@@H](C)O5)NC(=[N+]34)N2)O1.[Cl-] [GUANIDINO ACID] | 150 | 100 | 0 | 100 | 
CC[C@H]1C=CCC[C@@]2(C[C@@H]3CC[C@@H]4[C@H](C(=O)OCCCCCCCCCCCCCCC(=O)[O-])[C@]5(CCC[C@@H](C)O5)NC(=[N+]34)N2)O1.Cl [GUANIDINO ACID] | 100 | 100 | -100 | 200 | 
CC[C@H]1C=CCC[C@@]2(C[C@@H]3CC[C@@H]4[C@H](C(=O)OCCCCCCCCCCCC(=O)O)[C@]5(CCC[C@@H](C)O5)NC(=[N+]34)N2)O1.[Cl-] [GUANIDINO ACID] | 200 | 250 | 50 | 200 | 
CC[C@H]1C=CCC[C@@]2(C[C@@H]3CC[C@@H]4[C@H](C(=O)OCCCCCCCCCCCCCCC(=O)N(CCCN)C[C@@H](O)CCN)[C@]5(CCC[C@@H](C)O5)NC(=[N+]34)N2)O1.Cl.Cl.[Cl-] | 400 | 150 | 100 | 50 | 
CC[C@H]1C=CCC[C@@]2(C[C@@H]3CC[C@@H]4C[C@]5(CCC[C@@H](C)O5)NC(=[N+]43)N2)O1.[Cl-] |  |  |  |  | Selectivity [10]: 0; Selectivity [11]: 0; Selectivity [12]: 350; Selectivity [13]: 150; Selectivity [14]: -350
CC[C@H]1C=CCC[C@@]2(C[C@@H]3CC[C@H]4[C@@H](C(=O)OCCCCCCCCCCCCCCCC(=O)O)[C@@]5(CCC[C@@H](C)O5)NC(=[N+]34)N2)O1.[Cl-] | 150 | 50 | -50 | 100 | 
CC[C@H]1C=CCC[C@@]2(C[C@@H]3CC[C@@H]4[C@H](C(=O)OCc5ccccc5)[C@]5(CCC[C@@H](C)O5)NC(=[N+]34)N2)O1.[Cl-] |  |  |  |  | Selectivity [5]: 100; Selectivity [6]: 50; Selectivity [7]: 150; Selectivity [8]: 50; Selectivity [9]: 50
CC[C@H]1C=CCC[C@@]2(C[C@@H]3CC[C@@H]4[C@H](C(=O)OCCCCCCCCCCCCCCCC(=O)O)[C@]5(CCC[C@@H](C)O5)NC(=[N+]34)N2)O1.[Cl-] [CRAMBESCIDIN 657] | 100 | 200 | 50 | 150 | 
